The values that follow are results of earlier work, collected in the CATMoS acute toxicity set (Mansouri et al. 2021).

“And” between values parts separate entries of the source, which are not always exact repeats. Equal entries are not always repeated.

A word on the LD50: it is the dose expected to kill half of the subjects tested.

The series is described as follows: rat acute oral toxicity. Particulars: in vivo.
For `CCN(CC)C(=O)c1nnn(-c2ccc(N)cc2)c1C`, the LD50 was 494 mg/kg.

As for `CN(C)CC1CCCCC1`, the LD50 was 1230 mg/kg.

In the case of `Nc1ccc(CCNCC(O)c2ccccc2)cc1` (configuration not stated), the LD50 is 200 mg/kg.

With `Cc1cn([C@H]2C=C[C@@H](CO)O2)c(=O)[nH]c1=O`, the LD50 is 4000 mg/kg.

As for `Cc1c(Br)cc2[nH]c(C(F)(F)F)nc2c1[N+](=O)[O-]`, the LD50 is 83 mg/kg.

As to `CCOP(=S)(SC(C)CC)N(C=O)CC` (configuration not stated), the LD50 was 95.9 mg/kg.

In the case of `CN(C)C=C1C(=O)N(c2ccccc2)N=C1c1ccccc1`, the LD50 is 890 mg/kg.

For `CCC(C)c1ccccc1OC(N)=O` (configuration not stated), the LD50 is 410 mg/kg.

With `Fc1cc(F)c2nc(C(F)(F)F)[nH]c2c1`, the LD50 was 2.49 mg/kg.

Turning to `OCC(O)CCl` (configuration not stated), the LD50 was 26 mg/kg.

On to `CCCCCCc1ccc(O)cc1O`, for which the LD50 is 550 mg/kg.

With `COc1cc(C(C)=O)ccc1OCCCCN1CCN(c2ccccc2)CC1`, the LD50 is 573 mg/kg.

As for `Nc1cc2c(cc1C1CCCCC1)CCC2C(=O)O` (configuration not stated), the LD50 was 54 mg/kg.

Turning to `COc1ccc(C(=C(c2ccccc2)[N+](=O)[O-])c2ccc(OCCN3CCCC3)cc2)cc1`, the LD50 is 1780 mg/kg.

With `CCOP(=S)(OCC)Oc1cc(Cl)c(I)cc1Cl`, the LD50 is 140 mg/kg.

On to `CCOC(O)C(Cl)(Cl)Cl` (configuration not stated), for which the LD50 is 880 mg/kg.

With `Nc1c(CC(=O)O)cccc1C(=O)c1ccccc1`, the LD50 is 311 mg/kg.

For the compound `O=CNc1ccc(Cl)cc1`, the LD50 is 750 mg/kg.

Turning to `CCC(CO)NC(=O)C1C=C2c3cccc4c3c(cn4C)CC2N(C)C1` (configuration not stated), the LD50 was 200 mg/kg.

For the compound `CCCC(=NOCC)C1=C(O)CC(C2CCCSC2)CC1=O` (configuration not stated), the LD50 is 3940 mg/kg.

In the case of `COc1ccc(CCNC[C@H](O)c2ccc(O)cc2)cc1OC`, the LD50 is 9370 mg/kg.

For `CC(C#N)N1CCOCC1` (configuration not stated), the LD50 was 87 mg/kg.

`O=C(OCC1(COC(=O)c2cccnc2)CCCC(COC(=O)c2cccnc2)(COC(=O)c2cccnc2)C1O)c1cccnc1`: the LD50 was 10000 mg/kg.

As for `NC(=O)c1ccc([N+](=O)[O-])cc1`, the LD50 was 476 mg/kg.

As for `CCOCCOC(=O)C(C)Oc1ccc(Oc2ncc(C(F)(F)F)cc2Cl)cc1` (configuration not stated), the LD50 was 518 mg/kg.

For the compound `OCCC(F)(F)C(F)(F)C(F)(F)C(F)(F)C(F)(F)C(F)(F)F`, the LD50 is 1750 mg/kg.

As for `NCCC=C1c2ccccc2COc2ccccc21`, the LD50 is 960 mg/kg.

For `CCN(CC)CCNC(=O)c1ccc(N)cc1`, the LD50 was 1950 mg/kg.

`Clc1nc(Cl)c(Cl)c(Cl)c1Cl`: the LD50 is 435 mg/kg.

As for `CCCCOCCOC(=O)CCCCC(=O)OCCOCCCC`, the LD50 is 1100 mg/kg.

For the compound `OCCOCCN1CCN(C(c2ccccc2)c2ccc(Cl)cc2)CC1` (configuration not stated), the LD50 is 690 mg/kg and 950 mg/kg and 840 mg/kg.

Consider `COC(=O)C1=C(C)NC(C)=C(C(=O)OCC(C)C)C1c1ccccc1[N+](=O)[O-]` (configuration not stated), for which the LD50 is 1260 mg/kg.

For the compound `CN(C)C(=O)Nc1cccc(OC(F)(F)C(F)F)c1`, the LD50 is 1260 mg/kg.

Regarding `CN(C)c1ccc(N=NS(=O)(=O)O)cc1`, the LD50 was 60 mg/kg.

As to `COP(=O)(OC)OC=C(Br)Br`, the LD50 was 253 mg/kg.

Consider `O=C1CC(=O)N(c2ccccc2)N1c1ccccc1`, for which the LD50 was 1000 mg/kg.

As to `CCS(=O)(=O)Oc1ccc2c(c1)C(C)(C)CO2`, the LD50 was 2030 mg/kg.

As for `CCOCN(C(=O)CCl)c1c(C)cccc1OC(C)C`, the LD50 was 2700 mg/kg.

Consider `CC(C)(C)NCC(O)COc1cc(Cl)ccc1Cl` (configuration not stated), for which the LD50 was 1300 mg/kg.

Regarding `Cc1cc(CC(C)CC(C)(C)C)oc(=O)c1` (configuration not stated), the LD50 was 1480 mg/kg.

With `CC(=O)CC(=O)OC(C)C`, the LD50 is 16200 mg/kg.

Consider `Cc1ccc2c(c1)CC(=O)c1cc(C(C)C(=O)OCCOCCO)ccc1O2` (configuration not stated), for which the LD50 was 219 mg/kg.

With `O=C1C(Cl)=C(Cl)C(Cl)(Cl)C1(Cl)Cl`, the LD50 is 178 mg/kg.

In the case of `CCCN(C)C`, the LD50 is 500 mg/kg.

As for `O=C1CN2CCOC2(c2ccccc2F)c2cc(Br)ccc2N1` (configuration not stated), the LD50 was 2860 mg/kg.

For the compound `CCCCNCC(O)COc1ccc(-c2c(-c3ccccc3)c(=O)oc3cc(OC)ccc23)cc1` (configuration not stated), the LD50 was 500 mg/kg.

Take `CC(C)COCCO`: the LD50 is 400 mg/kg.

As to `CCOP(=S)(OCC)SCC`, the LD50 is 80 mg/kg.

`CCOC(=S)C=Cc1ccc(OC)c(OC)c1`: the LD50 is 980 mg/kg.

Turning to `CC(N)C1(C)CCCO1` (configuration not stated), the LD50 is 130 mg/kg.

With `O=C(O)Cc1ccccc1`, the LD50 is 2250 mg/kg.

As to `Cc1ccc(B2OCC3(CO2)COB(c2ccc(C)cc2)OC3)cc1`, the LD50 was 1130 mg/kg.

Regarding `c1ccc(NC[Si]23OCCN(CCO2)CCO3)cc1`, the median lethal dose (LD50) is 0.328 mg/kg.

Turning to `O=C1CCc2cc(C(=O)CCCN3CCN(c4ccccc4)CC3)ccc2N1`, the LD50 was 500 mg/kg.

For the compound `C#CCOC(=O)/C=C(C)/C=C/CC(C)CCCC(C)C` (configuration not stated), the LD50 is 4900 mg/kg.

Turning to `CC(=O)N(OCCN(C)C)C12CC3CC(CC(C3)C1)C2`, the LD50 is 630 mg/kg.

For `CS(=O)(=O)OCCN(CCOS(C)(=O)=O)S(C)(=O)=O`, the LD50 is 300 mg/kg.

Consider `C=C(Cl)CSC(=S)N(CC)CC`, for which the LD50 was 850 mg/kg.

For `COc1ccc(OC)c(CC(C)N)c1` (racemic), the LD50 was 171 mg/kg.

Turning to `CC(c1ccccc1)c1ccccc1CCl` (configuration not stated), the LD50 was 4700 mg/kg.

As for `CCCCCC[C@H]1C(=O)O[C@H](C)[C@H](NC(=O)c2cccc(NC=O)c2O)C(=O)O[C@@H](C)[C@@H]1OC(=O)CC(C)C`, the LD50 was 1470 mg/kg.

With `CCS(=O)(=O)CCOP(=S)(OC)OC`, the LD50 was 500 mg/kg.
